Source: patent US20250109120A1, “INDOLINE DERIVATIVES FOR TREATMENT AND/OR PREVENTION OF TUMOR OR CELL PROLIFERATIVE AND FIBROSIS DISEASES” (NATIONAL TAIWAN UNIVERSITY, priority 2023, published 2025)

Legend:
[1] = system: A549 cells; assay: Wound-healing migration assay; type: cell-based, human; details: compounds 2 μM, senexin A 5 μM, pirfenidone 1 mM; TGF-β1 10 ng/mL; 24 or 48 h
Procedure: A549 cells were incubated in six-well plates until reaching 90% confluency, scratched with a pipette tip, and immediately photographed (0 h). Cells were incubated with or without compound k (2 μM), senexin A (5 μM), or pirfenidone (1 mM) for 1 h, then treated with TGF-β1 (10 ng/mL) and allowed to migrate into the wound area for 24 or 48 h, and photographed. Cell migration into the wound was quantified using ImageJ software; the solid line indicates time zero. Quantitative assessment of the mean number of cells in the denuded zone is expressed as the mean±SEM from three independent experiments. **p<0.01 compared to the control group; ##p<0.01 and ###p<0.001 compared to TGF-β1-treated group.
Cells were seeded in six-well plates and cultured to 90% confluency, at which time the cellular monolayer was wounded with a sterile 10-μL pipette tip and washed with culture medium to remove detached cells. Cells were incubated in the presence or absence of test compounds for 24 h and photographed. The wound closure percentages were subsequently determined using ImageJ software (National Institutes of Health, USA).

[2] = system: A549 cells; assay: TGF-β1-induced EMT protein expression, western blot; type: cell-based, human; details: test compounds 2 μM, senexin A 5 μM, pirfenidone 1 mM; TGF-β1 10 ng/mL
Procedure: FIGS. 4A-4B show the inhibition of epithelial-to-mesenchymal transition protein expressions by CDK8 inhibitors in human alveolar epithelial cells. […] Cell lysates were subjected to a Western blot analysis using the indicated antibodies. Results are shown as the mean t SEM from three independent experiments. *p<0.05, and ***p<0.001 compared to the control group; #p<0.05, ##p<0.01, and ###p<0.001 compared to the TGF-β1-treated group. […] Cell viabilities were determined by an MTT assay. Results are shown as the mean t SEM of three independent experiments.
(§1) Cells (106) were incubated for 10 min at 4° C. in lysis buffer (20 mM HEPES at pH 7.4, 2 mM EGTA, 50 mM β-glycerophosphate, 0.1% Triton X-100, 10% glycerol, 1 mM DTT, 1 μg/mL of leupeptin, 5 μg/mL of aprotinin, 1 mM phenylmethylsulfonyl fluoride, and 1 mM sodium orthovanadate), scraped off, incubated on ice for an additional 10 min, and centrifuged at 17,000 g for 30 min at 4° C. Protein samples (20 μg) were then electrophoresed on SDS-polyacrylamide gel electrophoresis (PAGE) gels and transferred to a nitrocellulose membrane, which was then blocked by incubation for 30 min at room temperature with 5% bovine serum albumin (BSA) in Tris-buffered saline with 0.1% Tween-20 (TBST). Immunoblotting was performed by overnight incubation at 4° C. with primary antibodies in TBST, followed by incubation for 1 h at room temperature with horseradish peroxidase (HRP)-conjugated secondary antibodies. Bound antibodies were measured using enhanced chemiluminescence (ECL) reagent (GE Healthcare, UK) and exposed to photographic film.

[3] = biological target: CDK8 (Homo sapiens (Human), UniProt P49336); assay: LanthaScreen Eu Binding Assay, Thermo Fisher SelectScreen kinase service; details: for inhibition at 10 µM: read-out: CDK8 Inhibition percentage at 10 μM; for IC50: read-out: Inhibition of CDK8 IC50
Sequence of CDK8 (P49336 whole entry, looked up): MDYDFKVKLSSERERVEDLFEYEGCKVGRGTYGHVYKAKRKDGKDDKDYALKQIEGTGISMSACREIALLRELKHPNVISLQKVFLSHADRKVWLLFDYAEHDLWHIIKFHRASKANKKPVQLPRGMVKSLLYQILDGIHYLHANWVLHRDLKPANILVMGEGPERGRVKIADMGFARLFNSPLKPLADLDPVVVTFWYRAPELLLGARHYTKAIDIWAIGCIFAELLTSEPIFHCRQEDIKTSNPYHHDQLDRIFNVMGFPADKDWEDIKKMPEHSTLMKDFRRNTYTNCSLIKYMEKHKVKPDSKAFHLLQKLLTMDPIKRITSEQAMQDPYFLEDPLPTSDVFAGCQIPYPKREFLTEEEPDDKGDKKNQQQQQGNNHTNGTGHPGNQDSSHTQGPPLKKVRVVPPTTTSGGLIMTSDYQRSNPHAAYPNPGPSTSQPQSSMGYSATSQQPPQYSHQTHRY
Sequence of CDK8 (P24863 whole entry partner, looked up): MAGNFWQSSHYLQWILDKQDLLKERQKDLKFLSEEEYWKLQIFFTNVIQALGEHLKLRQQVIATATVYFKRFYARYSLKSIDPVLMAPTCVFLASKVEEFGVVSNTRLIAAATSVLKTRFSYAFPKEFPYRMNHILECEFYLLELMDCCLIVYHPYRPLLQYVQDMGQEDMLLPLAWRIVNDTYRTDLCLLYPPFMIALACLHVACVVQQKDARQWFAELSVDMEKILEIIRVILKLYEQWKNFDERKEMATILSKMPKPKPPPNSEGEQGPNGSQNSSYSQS
Procedure: Compounds were tested for kinase inhibitory activity using the Thermo Fisher SelectScreen service (www.thermofisher.com/selectscreen). For CDK8, the LanthaScreen Eu Binding Assay was used. Briefly, the assay employed utilizes a fluorescent tracer to a given kinase. This is used to detect the addition of an anti-tag antibody. When the tracer and antibody bind to the targeted kinase, the Forster resonance energy transfer is measured. When a kinase inhibitor is added to the assay, the tracer/kinase binding will be disrupted, producing low FRET detection and indicating kinase inhibitory activity. Evaluation of kinase activity of additional kinase targets utilized the LanthaScreen binding assay or the Z′-Lyte activity assay provided by Thermo Fisher SelectScreen service. The IC50 values were determined using sequential doses, and the inhibition curves were provided by Thermo Fisher Scientific.
The fragment-based drug design strategy in this study led to optimized CDK8 inhibitors with promising results. CDK8-inhibitory activities of the compounds (a-n) designed by this fragment-based drug design strategy were tested using the SelectScreen kinase service of ThermoFisher Scientific. The inhibitory effects of the 14 compounds and the referenced compound were tested at a concentration of 10 μM.

[4] = system: A549 cells; assay: TGF-β1-induced oxidative stress (MDA, Nox4); type: cell-based, human; details: compounds 2 μM, TGF-β1 10 ng/ml 24 h
Procedure: A549 cells were incubated with compounds k, b, a (2 μM), senexin A (5 μM), or pirfenidone (1 mM) for 1 h, followed by treatment with 10 ng/ml TGF-β1 for a further 24 h. Malondialdehyde (MDA) (FIG. 10A) and Nox4 (FIG. 10B) levels were detected. ***p<0.001 compared to the control group; #p<0.05, ##p<0.01, and ###p<0.001 compared to the TGF-β1-treated group.
An end product of lipid peroxidation, malondialdehyde (MDA), was measured by spectrophotometry at a wavelength of 532 nm using malondialdehyde bis(dimethyl acetal) as the standard as per the assay protocol (Cell Biolabs, USA).

[5] = system: A549 cells; assay: Nuclear p-Smad3 T179 and RNA polymerase II pS2/S5 after TGF-β1, fractionation and western blot; type: cell-based, human; details: compound k 5 μM, senexin A 5 μM, pirfenidone 1 mM; TGF-β1 10 ng/ml 3 h
Procedure: FIGS. 8A-8B show the inhibitory effects of cellular distributions of TGF-β1-induced p-Smad3 T179, RNA polymerase II pS2/S5, and Smad3 after treatment with compound k. Human alveolar epithelial A549 cells were incubated with compound k (5 μM), senexin A (5 μM), or pirfenidone (1 mM) for 1 h, followed by stimulation with TGF-β1 (10 ng/ml) for 3 h. Protein expressions in the cytoplasmic and nuclear fractions were subjected to a Western blot analysis using the indicated antibodies. α-Tubulin and histone H3 served as loading controls for the cytoplasmic and nuclear fractions, respectively. Results are shown as the mean±SEM of three independent experiments. **p<0.01 and ***p<0.001 compared to the control group; #p<0.05 and ##p<0.01 compared to the TGF-β1-treated group.
as §1
A Nuclear/Cytosol Fractionation Kit (Biovision, USA) was used to separate the cytosolic and nuclear fractions. […]

SMILES	inhibition at 10 µM [3] [%]	IC50 [3] [nM]	CDK8 Inhibition percentage at 10 μM [3] [%]	further results
CC(C)=C1C(=O)Nc2ccc(S(=O)(=O)Nc3ccc(Oc4ccc([N+](=O)[O-])cc4)cc3)cc21 [Compound a, N-(4-(4-Nitrophenoxy)phenyl)-2-oxo-3-(propan-2-ylidene)indoline-5-sulfonamide]	48			inhibition of cell migration [1]: less inhibition; TGF-β1-triggered EMT protein expressions [2]: no significant reduction; TGF-β1-caused oxidative stress (MDA and Nox4 levels) [4]: less-potent inhibition
CC(C)=C1C(=O)Nc2ccc(S(=O)(=O)Nc3ccc(Nc4ccccc4)cc3)cc21 [Compound b, 2-Oxo-N-(4-(phenylamino)phenyl)-3-(propan-2-ylidene)indoline-5-sulfonamide]	76	1570		inhibition of cell migration [1]: less inhibition; TGF-β1-triggered EMT protein expressions [2]: slight reduction; TGF-β1-caused oxidative stress (MDA and Nox4 levels) [4]: less-potent inhibition
CC(C)=C1C(=O)Nc2ccc(S(=O)(=O)Nc3ccc(NC(=O)c4ccccc4)cc3)cc21 [Compound c, N-(4-((2-Oxo-3-(propan-2-ylidene)indoline)-5-sulfonamido)phenyl)benzamide]			33	
CC(C)=C1C(=O)Nc2ccc(S(=O)(=O)Nc3ccc(C(=O)c4ccccc4)cc3)cc21 [Compound d, N-(4-Benzoylphenyl)-2-oxo-3-(propan-2-ylidene)indoline-5-sulfonamide]	99	380		
CC(C)=C1C(=O)Nc2ccc(S(=O)(=O)Nc3cc(-c4ccc(C)cc4)[nH]n3)cc21 [Compound f, 2-Oxo-3-(propan-2-ylidene)-N-(5-(p-tolyl)-1H-pyrazol-3-yl) indoline-5-sulfonamide]		798	89	
CC(C)=C1C(=O)Nc2ccc(S(=O)(=O)Nc3nnc(-c4ccccc4)s3)cc21 [Compound g, 2-Oxo-N-(5-Phenyl-1,3,4-thiadiazol-2-yl)-3-(propan-2-ylidene) indoline-5-sulfonamide]		338	99	
CC(C)=C1C(=O)Nc2ccc(S(=O)(=O)Nc3ccc(-n4ccnc4)cc3)cc21 [Compound i, N-(4-(1H-imidazol-1-yl)phenyl)-2-oxo-3-(propan-2-ylidene) indoline-5-sulfonamide]		945	92	
CNC(=O)c1cc(Oc2ccc(NS(=O)(=O)c3ccc4c(c3)C(=C(C)C)C(=O)N4)cc2)ccn1 [Compound j, N-Methyl-4-(4-((2-oxo-3-(propan-2-ylidene)indoline)-5-sulfonamido)phenoxy)picolinamide]		1240	85	
CNC(=O)c1ccc(NS(=O)(=O)c2ccc3c(c2)C(=C(C)C)C(=O)N3)cc1F [Compound l, 2-Fluoro-N-methyl-4-((2-oxo-3-(propan-2-ylidene)indoline)-5-sulfonamido)benzamide]		652	92	
Cc1ccc(=O)n(-c2ccccc2)c1 [pirfenidone, reference compound]				phosphorylation of p-Smad3 T179 and RNA Pol II pSer2/5 [5]: less-potent inhibition; TGF-β1-triggered EMT protein expressions [2]: slight inhibition

Now from value to compound, other results behind:

inhibition at 10 µM [3] [%]	IC50 [3] [nM]	SMILES	CDK8 Inhibition percentage at 10 μM [3] [%]	further results
82	1640	CC(C)=C1C(=O)Nc2ccc(S(=O)(=O)Nc3cc(-c4ccccc4)[nH]n3)cc21 [Compound e, 2-Oxo-N-(5-phenyl-1H-pyrazol-3-yl)-3-(propan-2-ylidene)indoline-5-sulfonamide]		
91	870	CC(C)=C1C(=O)Nc2ccc(S(=O)(=O)Nc3nc4ccccc4s3)cc21 [Compound h, N-(Benzo[d]thiazol-2-yl)-2-oxo-3-(propan-2-ylidene)indoline-5-sulfonamide]		
46		CC(C)=C1C(=O)Nc2ccc(S(=O)(=O)Nc3ccc(C)c(Nc4nccc(-c5cccnc5)n4)c3)cc21 [Compound m, N-(4-Methyl-3-((4-(pyridin-3-yl)pyrimidin-2-yl)amino)phenyl)-2-oxo-3-(propan-2-ylidene)indoline-5-sulfonamide]		
74	3000	CC(C)=C1C(=O)Nc2ccc(S(=O)(=O)Nc3cccc4c(=O)[nH][nH]c(=O)c34)cc21 [Compound n, N-(1,4-Dioxo-1,2,3,4-tetrahydrophthalazin-5-yl)-2-oxo-3-(propan-2-ylidene)indoline-5-sulfonamide]		
87	1680	CC(=O)c1cccc(NS(=O)(=O)c2ccc3c(c2)C(=C(C)C)C(=O)N3)c1 [Reference Compound, N-(3-acetylphenyl)-2-oxo-3-(propan-2-ylidene)-indoline-5-sulfonamide, reference compound]		
